This is an account of results in patent US20150366911A1, “METHODS FOR REJUVENATING RED BLOOD CELLS” (Biomet Biologics, LLC, priority 2013, published 2015).

For data set [1] the following is noted: Total Plasma Volume = 2.28 Liters; refer to 2000 Report by Dr. Lobe; cited from earlier work.
The nature of data set [2]: Plasma concentration in vivo after transfusion of one unit of 2,3-DPG enhanced cells. Particulars: Total Plasma Volume = 2.28 Liters. The procedure: A Y-type tube set is assembled is assembled as shown in FIG. 2 and connected to a unit of RBCs. The tube set includes a 0.2 μm filter. RBC enhancement composition (Rejuvesol® Solution) is transferred to the RBCs via a vented spike to form a treated blood composition. The treated blood composition is mixed and incubated, forming an incubated blood composition. The treated blood composition is centrifuged to form a concentration of RBC and a supernatant. The supernatant is transferred to an empty waste bag, and the concentration of RBCs was resuspended in 100 mL additive solution that was transferred from a second transfer bag.
A Y-type tube set is assembled as shown in FIG. 2 and connected to a unit of 250 mL RBCs. 100 mL additive solution, comprising saline, was transferred to the RBCs. The tube set includes a 0.2 μm filter. 50 mL RBC enhancement composition (Rejuvesol® Solution) was transferred to the RBCs via a vented spike to form a treated blood composition. The treated blood composition was mixed and incubated, forming an incubated blood composition. The incubated blood composition was then diluted with 200 mL wash solution from a first transfer bag containing 200 mL wash solution, forming a diluted blood composition. The diluted blood composition was centrifuged to form a concentration of RBCs and a supernatant. The supernatant was transferred to the now empty first transfer bag, and the concentration of RBCs was resuspended in 100 mL additive solution, which was transferred from a second transfer bag.
Blood processed according to Examples 1 and 2 are analyzed for concentrations of rejuvenation materials in the final processed RBC suspensions, with the following results.

`CC(O)C(=O)O` (stereo not drawn) [Lactate]: in data set [1], the “Plasma Concentration in vivo after transfusion of one unit, Without Further Processing” value is 2190 µM. In addition, in data set [2], the “Plasma Concentration in vivo after transfusion of one unit, Concept 2, assume 85% Removal” value (shortened to “Plasma Concentration … assume 85% Removal”) came to 330 µM and the “Plasma Concentration in vivo after transfusion of one unit, Concept 1, assumes 75% Removal” value (“Plasma Concentration … assumes 75% Removal” below) amounted to 550 µM.
For the compound `O=c1[nH]c(=O)c2[nH]c(=O)[nH]c2[nH]1` [Uric Acid], in data set [1], the “Plasma Concentration in vivo after transfusion of one unit, Without Further Processing” value was 2190 µM. Further, in data set [2], the “Plasma Concentration … assume 85% Removal” value came to 330 µM and the “Plasma Concentration … assumes 75% Removal” value amounted to 550 µM.
With `Nc1ncnc2nc[nH]c12` [Adenine], in data set [1], the “Plasma Concentration in vivo after transfusion of one unit, Without Further Processing” value was 110 µM. Besides, in data set [2], the “Plasma Concentration … assume 85% Removal” value was 16 µM and the “Plasma Concentration … assumes 75% Removal” value was found to be 27 µM.
With `OC[C@H]1O[C@@H](n2cnc3c(O)ncnc32)[C@H](O)[C@@H]1O` [Inosine], the “Plasma Concentration in vivo after transfusion of one unit, Without Further Processing” value in data set [1] is 2190 µM. For the same compound, in data set [2], the “Plasma Concentration … assume 85% Removal” value was found to be 330 µM and the “Plasma Concentration … assumes 75% Removal” value turned out to be 550 µM.
Consider `CC(=O)C(=O)O` [Pyruvate], for which the “Plasma Concentration in vivo after transfusion of one unit, Without Further Processing” value in data set [1] was 2190 µM. In data set [2], the “Plasma Concentration … assume 85% Removal” value is 330 µM and the “Plasma Concentration … assumes 75% Removal” value worked out at 550 µM.
For the compound `O=c1[nH]cnc2nc[nH]c12` [Hypoxanthine], the “Plasma Concentration in vivo after transfusion of one unit, Without Further Processing” value in data set [1] is 2190 µM. Moreover, in data set [2], the “Plasma Concentration … assume 85% Removal” value came out at 330 µM and the “Plasma Concentration … assumes 75% Removal” value worked out at 550 µM.
